Data reported in EP4361137A1, “PRUNE1 INHIBITORS AND THERAPEUTIC USE THEREOF” (CEINGE Biotecnologie Avanzate Franco Salvatore s.c. a r.l., priority 2022, dated 2024).

What was measured:
D425-MED-Luc = assay: Orthotopic xenograft of D425-MED-Luc cells in nude mice; assay type: in vivo; conditions: 6 mg/kg/day intraperitoneally; for toxicity by total body weight, treated vs control mice / intracranial tumor growth (bioluminescence, photon emission) / PRUNE1 levels in cerebellar tumours (immunoblotting): HCl salt; for intracranial tumor growth (bioluminescence, photon emission): T21, after 14 days of treatment; for PRUNE1 levels in cerebellar tumours (immunoblotting): n.3 treated vs n.3 vehicle mice
Description: Starting after seven days from tumour implantation (i.e., once the tumours were established) the mice (grouped according to their bioluminescence values) were injected intraperitoneally with LEO-AA7.5(S)T at 6 mg/kg/day, or with water as the vehicle for the control group. After n.28 days from tumour implantation (i.e., after three weeks of AA7.5 treatment), the mice were sacrificed, and the organs were collected.
D425-MED-luc [Ferrucci et al., 2018] were implanted into the right cerebellar hemisphere of female (n.14) athymic nude mice (5 weeks old), as previously described [Asadzadeh et al., 2018], to establish orthotopic intracerebellar D425-MED-Luc xenograft models. Nude mice were anaesthetised with Ketamine/ Xylazine (87.5 mg/kg, 12.5 mg/kg, respectively). The mice were then placed in a stereotactic frame by hooking their incisors onto the frame hold. A small skin incision (length, 1 mm) and a burr hole (diameter, 0.7 mm) were created using a microsurgical drill (Fine Science Tools, Foster City, CA, USA). D425-MED-Luc cells (1 ×10^5)were resuspended in 10 µL PBS and injected slowly through the burr hole into the right cerebellar hemisphere (stereotactic coordinates from Bregma: anteroposterior, 5.5 mm; right lateral, 2.1 mm; dorsoventral 5.0 mm), with a steady force over 30 s, using a 10-AL, 26-gauge Hamilton Gastight model 1701RN syringe needle (SigmaAldrich) that was inserted perpendicular to the cranial surface. The incision was sutured using Safil polyglycolic acid synthetic absorbable suture (6/0). The mice were kept on a warming blanket after the surgery, to help them to maintain their body temperature. Their mobility and respiratory patterns were observed continuously, and once the mice had recovered from the anaesthesia; they were place in a sterile housing cage. The mice were monitored daily for development of potential neurological deficits. Seven days after the implantation of the cells, the mice were imaged, and tumour growth was evaluated by bioluminescence acquisition using an imaging system (IVIS 3D Illumina; Xenogen/ Caliper). For the acquisitions, the mice were anaesthetised by inhalational of isoflurane, and the D-luciferin (122799; PerkinElmer) (15 mg/mL stock) was injected intraperitoneally (100 µL per 10 g body weight). At 5 min from the luciferin injection, the mice were imaged for 3 min. To quantify the bioluminescence, the integrated fluxes of photons (p/s) within each area of interest were determined using the Living Images Software Package 3.2 (Xenogen-Perkin Elmer). For LEO-AA7.5(S)T in-vivo treatment, starting after seven days from tumour implantation (i.e., once the tumours were established) the mice (grouped according to their bioluminescence values) were injected intraperitoneally with LEO-AA7.5(S)T at 6 mg/kg/day, or with water as the vehicle for the control group. After 28 days from tumour implantation (i.e., after three weeks of AA7.5 treatment), the mice were sacrificed, and the organs were collected.

D425-MED cells = assay: Real-time cell proliferation assay (cell index, xCELLigence); assay type: cell-based, human; conditions: D425-Med cells
Description: J774A.1 murine macrophages (referred to as J774 cells; ATCC: #TIB-67), MMTV-Prune1-Wnt1 cells were grown in high-glucose Dulbecco's modified Eagle's medium (DMEM; Euroclone) supplemented with 20% (v/v) FBS, 2 mM L-glutamine, and 1% (v/v) antibiotics (Pen/Strep). D425-MED, D425-MED-Luc and […] cells were grown in high-glucose Dulbecco's modified Eagle's medium (DMEM; Euroclone) and Iscove's Modified Dulbecco's Medium (IMDM; Sigma) at 1:1 (v/v) dilution supplemented with 20% (v/v) FBS, 2 mM L-glutamine, 1% non-essential amino acid solution (M7145; Sigma-Aldrich/Merck), and 1% (v/v) antibiotics (Pen/Strep). The cells were grown at 37 °C in a humidified atmosphere of 95% air, 5% CO2 (v/v).
(§1) D425.MED and MMTV-Prune1/Wnt1 cells were plated and treated with increasing concentrations of LEO-AA7.5(S)T for 24 hours. Water-treated cells were used as negative control for the experiments.
(§2) Cellular proliferation rates were determined with the xCELLigence system (Roche). D425-MED, MATH-Prune1/TP53-/- and MMTV-Prune1/Wnt1 cells (8 × 10^3) were treated with increasing concentrations of LEO-AA7.5(S)T, harvested, and then added to a single well of an xCELLigence E-plate 16. The proliferation rates were determined at 2-min intervals by measuring the impedance changes across the electrodes at the bottoms of the wells. These cell index values were calculated by the xCELLigence RTCA software. with vehicle-treated cells were the negative control. Impedance was measured every 2 min over 24 hours. The IC50 values were calculated through nonlinear regression analysis performed with Graph Pad Prism 9 ([inhibitor] vs. response (three parameters). Data are means ± SD of three independent experiments.

human PRUNE1 = assay: qPCR of PRUNE1 mRNA in D425-MED cells; assay type: cell-based; conditions: 10 µM, 24 hours, relative to vehicle (2^-ΔΔCt)
Description: as §1
RNA samples were extracted using TRIzol RNA Isolation Reagent (15596026, Invitrogen), according to the manufacturer instructions. Reverse transcription was performed with 5× All-In-One RT MasterMix (g592; ABM), according to the manufacturer instructions. The reverse transcription products (cDNA) were amplified by qRT-PCR using an RT-PCR system (7900; Applied Biosystems, Foster City, CA, USA). The cDNA preparation was through the cycling method, by incubating the complete reaction mix as follows: cDNA reactions: (37 °C for 10 min and 60 °C for 15 min); Heat-inactivation: 95 °C for 3 min; Hold stage: 4 °C. The targets were detected with the SYBR green approach, using BrightGreen BlasTaq 2× PCR MasterMix (G895; ABM). Human ACTB was used as the housekeeping gene to normalize the quantification cycle (Cq) values of the other genes. […] Relative expression of the target genes was determined using the 2^-ΔΔCq method, as the fold increase compared with the controls. […]

[1] = system: MATH1-Prune1/TP53-/- cells; assay: Real-time cell proliferation assay (cell index, xCELLigence); assay type: cell-based, murine; conditions: impedance every 2 min over 24 h
Description: Primary murine TNBC cells from tumors generated by MMTV-Prune1/Wnt1 mice [Ferrucci et al., 2021] and Primary murine Medulloblastoma Group 3 cells from tumors generated MATH-Prune1/TP53-/- mice were obtained (2 months from tumor onset).
as §2

[2] = listed as (S)-(1-(4-((4-methoxybenzyl)amino)-1,3,5-triazin-2-yl)piperidin-3-yl)methanol HC

COc1ccc(CNc2ncnc(N3CCC[C@H](CO)C3)n2)cc1.Cl [LEO-AA7.5(S)T, (S)-(1-(4-((4-methoxybenzyl)amino)-1,3,5-triazin-2-yl)piperidin-3-yl)methanol HCl salt]
EMT in cerebellar tumours (N-cadherin loss, increased E-cadherin) (D425-MED-Luc): inhibition of EMT | activated PTEN in cerebellar tumours (immunoblotting) (D425-MED-Luc): overexpression | nuclear phosphorylated SMAD2/3 and OTX2 in cerebellar tumours (immunoblotting) (D425-MED-Luc): inhibition | toxicity by total body weight, treated vs control mice (D425-MED-Luc): No significant differences | intracranial tumor growth (bioluminescence, photon emission) (D425-MED-Luc): impairment of tumour growth | intracranial tumor growth (bioluminescence, photon emission) (D425-MED-Luc; [2]): significantly decreased | treated mice showing metastases in the spinal cord (D425-MED-Luc; control mice 7 out of 7): two out of seven | toxicity by total body weight, treated vs control mice (D425-MED-Luc; [2]): no decrease in total body weight | PRUNE1 levels in cerebellar tumours (immunoblotting) (D425-MED-Luc): downregulation of Prune1 | PRUNE1 levels in cerebellar tumours (immunoblotting) (D425-MED-Luc; [2]): reduced PRUNE1 levels | cell proliferation rate, combination with Vincristine (D425-MED cells; 10 µM added to 10 nM or 1 nM Vincristine): reduces the cell proliferation rate | inhibition of cell proliferation, combination with Seclidemstat [SP-2577] (D425-MED cells; 10 µM plus 22.5 µM Seclidemstat): enhance the inhibition of cell proliferation | half maximal inhibitory concentration (IC50) for the inhibition of cell proliferation index (D425-MED cells; impedance every 2 min over 24 h): 71 µM | endogenous Prune1 mRNA (human PRUNE1): 0.3 fold | half maximal inhibitory concentration (IC50) for the inhibition of cell proliferation index [1]: 31.1 µM
